Results taken from patent US20250230149A1, “MGLUR5 MODULATING COMPOUNDS, COMPOSITIONS, AND METHODS OF USE” (Allyx Therapeutics, Inc., priority 2022, published 2025).
Converted amounts (≈) assume the structure as drawn. “Also recorded” adds a separate entry of the source.

How the values were obtained:
CYP2C19 = CYP2C19 (Homo sapiens, UniProt P33261); assay: CYP450 reaction phenotyping in Supersomes, CYP2C19; format: in vitro ADME
Description: (§1) In Vitro CYP450 Reaction Phenotyping Study in Supersomes™ Over-Expressing Human CYP Enzymes
(§2) The CYPP450 enzymes involved in the Phase I metabolism of Compound 1 Form A were investigated in vitro. Compound 1 Form A was metabolized by CYP1A2, CYP2D6 and CYP3A4 and with T1/2 values of 64, 14, and 176 min, respectively, and CLint of 0.261, 0.984 and 0.0786 μL/min/pmol CYP, respectively. No evidence of Compound 1 metabolism by CYP2B6, CYP2C8, CYP2C9 and CYP2C19 was observed.

[1] = Intravenous and oral cross-over pharmacokinetic study; format: in vivo, male Sprague Dawley rats; settings: male rats, IV 1 mg/kg
Description: This study assessed the PK of Compound 1 AH Form A in male Sprague Dawley rats (3/group) following single IV (intravenous) administration at 1 mg/kg as a solution in 2.5% N-Methyl-2-pyrrolidone (NMP)+1% Solutol HS15 in water or a PO (oral) administration of 3 formulations at 5 and 50 mg/kg, administered to the same animals in a cross over with 7 days recovery.
Serial plasma samples were collected at intervals to 24 h post dose and the level of Compound 1 determined in each plasma sample by LC-MS/MS.

in vivo = assay: in vivo
Description: Six cohorts of 6 participants each received a single oral dose of Compound 1 in the fasted state at the following dose levels: 10, 40, 70, 100, 150, and 200 mg and then were followed for 7 days; the starting dose of 10 mg was <10% of the 140 mg human equivalent dose (HED) of the rat NOAEL in the GLP 28-day rat study of 15 mg/kg.

APP/PS1 mice [2] = assay: SV2A PET imaging of synaptic density in APP/PS1 mouse model; format: in vivo; settings: 12 months of age, one-month treatment, 3.75 mg/kg q12 oral
Description: (§3) The objective of this study was to assess synaptic density of control and APP/PS1 mice before and after treatment with Compound 1, and to assess the reversibility of any observed effects following a drug washout period.
(§4) Vehicle (95% polyethylene glycol (PEG) 400/5% solutol) or Compound 1 at 7.5 mg/kg/day (3.75 mg/kg q12) was given to control and APP/PS1 mice for at least 28 days by oral administration. A subset of mice stopped treatment after four weeks, then underwent a four-week washout period.
To further maximize translational relevance, in other studies mice were aged to the point that synapse loss was detectable using SV2A PET. At 12 months of age, synapse density, as measured by hippocampal/brainstem [^18F]SDM-8 SUVR-1, is reduced in APP/PS1 mice relative to wild-type.

[3] = Solubility in EtOAc/heptane mixtures by HPLC; format: physicochemical; settings: organic solvent or mixture, thermodynamic from solid
Description: Solubility data were generated applying the following protocol: slurries of Compound 1 were prepared and allowed to equilibrate at 20° C. under stirring for about 18 hours. To determine the concentration in supernatant, about 0.1 mL of slurry was sampled with syringe, filtered, weighed, diluted with MeCN, and injected into an HPLC. […] Samples were cooled to 20° C., and solid residues were isolated by filtration on 20-μm PTFE filter, dried under vacuum at 40° C., and submitted to XRPD analysis. Compound 1 peak area for each sample was recorded, and solubility data were calculated using previously determined response factor (245 nm, 1460 mAU*sec/mg/mL, Table 7). The data were combined and visualized on chart with the solubility as function of the percentage of heptane by volume. […] Solubility smoothly decreases with the increase in heptane amount.

CYP2B6 = biological target: T1, CYP2B6 (Homo sapiens, UniProt P20813); assay: CYP450 reaction phenotyping in Supersomes, CYP2B6; format: in vitro ADME
T1 construct: purchased
Description: as §1, §2

CYP2C9 = biological target: T2, CYP2C9 (Homo sapiens, UniProt P11712); assay: CYP450 reaction phenotyping in Supersomes, CYP2C9; format: in vitro ADME
T2 construct: purchased
Description: as §1, §2

[4] = Approximate solubility (visual) in solvents; format: physicochemical; settings: thermodynamic from solid, read-out: Approx. solubility
Description: The polymorph study protocol involved the use of a selection of solvents in which the solubility of Compound 1 was initially evaluated. Four typologies of experiments were then set up: temperature cycling, evaporative, long-term slurries and vapor diffusion. The number of solvents, solvent volumes and amount of material to be used in each experiment was based on solubility values and the kind of experiment.
Approximate solubility (visual) of Compound 1 was assessed in a list of solvents selected based on class diversity including solvent/water mixtures (Table 5). Compound 1 (5.0±0.2 mg) was weighted in vials and known aliquots of solvent were progressively added at 20° C. until a clear solution was visually observed; magnetic stirring was applied. The final solutions were stirred at room temperature overnight to evaluate any re-crystallization phenomena.

APP/PS1 mice [5] = assay: Immunohistochemical staining of SV2A and PSD-95 in APP/PS1 mouse model with washout; format: in vivo
Description: as §3, §4
Reduced synaptic density in APP/PS1 samples relative to controls was confirmed by immunohistochemical staining of pre- and post-synaptic markers (SV2A and PSD-95) in hippocampal and cortical sections.

T2 sequence (P11712 whole entry): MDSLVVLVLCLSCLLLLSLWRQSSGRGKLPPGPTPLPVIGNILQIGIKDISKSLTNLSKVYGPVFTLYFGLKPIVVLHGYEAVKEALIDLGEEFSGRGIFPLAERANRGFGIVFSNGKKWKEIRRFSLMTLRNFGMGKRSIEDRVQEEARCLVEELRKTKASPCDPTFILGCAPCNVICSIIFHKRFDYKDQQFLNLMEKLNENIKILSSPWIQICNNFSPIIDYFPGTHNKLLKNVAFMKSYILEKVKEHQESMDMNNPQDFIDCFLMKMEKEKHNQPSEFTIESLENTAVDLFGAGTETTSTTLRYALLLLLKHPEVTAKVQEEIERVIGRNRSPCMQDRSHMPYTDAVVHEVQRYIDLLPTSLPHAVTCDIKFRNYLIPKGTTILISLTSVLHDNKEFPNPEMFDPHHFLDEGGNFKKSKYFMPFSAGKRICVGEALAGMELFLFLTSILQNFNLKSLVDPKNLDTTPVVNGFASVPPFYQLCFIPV
T1 sequence (P20813 whole entry): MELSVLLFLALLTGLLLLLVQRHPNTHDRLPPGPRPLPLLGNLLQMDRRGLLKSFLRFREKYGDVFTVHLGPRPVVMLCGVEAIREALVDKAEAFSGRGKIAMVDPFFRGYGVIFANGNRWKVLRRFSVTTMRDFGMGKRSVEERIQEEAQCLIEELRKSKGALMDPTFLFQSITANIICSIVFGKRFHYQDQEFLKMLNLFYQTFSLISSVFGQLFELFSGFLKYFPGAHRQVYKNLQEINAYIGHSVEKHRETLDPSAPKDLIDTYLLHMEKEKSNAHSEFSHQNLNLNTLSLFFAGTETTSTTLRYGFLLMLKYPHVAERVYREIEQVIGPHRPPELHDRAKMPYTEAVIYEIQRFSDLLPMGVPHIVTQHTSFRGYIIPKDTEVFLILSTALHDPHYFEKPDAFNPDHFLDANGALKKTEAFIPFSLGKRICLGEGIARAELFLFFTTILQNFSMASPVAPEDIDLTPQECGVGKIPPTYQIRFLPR
CYP2C19, sequence (P33261 whole entry): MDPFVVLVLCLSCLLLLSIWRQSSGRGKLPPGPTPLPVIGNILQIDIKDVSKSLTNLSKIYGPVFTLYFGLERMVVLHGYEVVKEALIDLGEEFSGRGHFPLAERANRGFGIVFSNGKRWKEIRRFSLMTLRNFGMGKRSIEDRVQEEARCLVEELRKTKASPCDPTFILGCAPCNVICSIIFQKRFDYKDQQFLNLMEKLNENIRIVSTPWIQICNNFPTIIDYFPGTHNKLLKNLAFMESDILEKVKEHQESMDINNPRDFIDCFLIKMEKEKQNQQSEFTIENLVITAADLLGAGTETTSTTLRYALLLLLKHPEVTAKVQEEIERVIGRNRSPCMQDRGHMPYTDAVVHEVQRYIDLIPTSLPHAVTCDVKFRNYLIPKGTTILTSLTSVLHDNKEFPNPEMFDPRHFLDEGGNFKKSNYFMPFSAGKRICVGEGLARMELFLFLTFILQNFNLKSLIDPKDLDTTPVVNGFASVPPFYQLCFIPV

## O=C1N[C@H](c2cncc(C#Cc3ccccc3)c2)[C@@H](c2ccccc2Cl)O1 [Compound 1, (4R,5R)-5-(2-chlorophenyl)-4-(5-(phenylethynyl)pyridin-3-yl)oxazolidin-2-one]
CYP2C19
  metabolism by CYP2C19: No evidence
[1]; Sprague Dawley, rat, plasma
  clearance: 5.98 mL/min/kg
  half-life: 4.49 h
[1]; Sprague Dawley, rat, plasma, solution in 2.5% NMP + 1% Solutol HS15 in water
  Cmax: 595 ng/mL
[1]; Sprague Dawley, rat, plasma, read-out: Vdss
  Vd: 2.23 L/kg
[1]
  AUCinf (in AUClast column, footnote 1): 2910^1 ng · h/mL
In vivo
  human equivalent dose (HED) of the rat NOAEL: 140 mg
In vivo; rat
  NOAEL at 28 days: 15 mg/kg
APP/PS1 mice [2]
  synaptic density, SV2A PET (hippocampal/brainstem [18F]SDM-8 SUVR-1): fully recovered; also recorded: highly significant increase
[3]; EtOAc/heptane 20:80 (% v/v), 20° C.
  solubility: 2 mg/mL (≈ 5.34 mM)
[3]; EtOAc/heptane 20:80 (% v/v), 45° C.
  solubility: 3 mg/mL (≈ 8 mM)
[3]; EtOAc/heptane 32:68 (% v/v), 20° C.
  solubility: 6 mg/mL (≈ 16 mM)
[3]; EtOAc/heptane 32:68 (% v/v), 45° C.
  solubility: 10 mg/mL (≈ 26.7 mM)
[3]; EtOAc/heptane 40:60 (% v/v), 20° C.
  solubility: 11 mg/mL (≈ 29.3 mM)
[3]; EtOAc/heptane 40:60 (% v/v), 45° C.
  solubility: 17 mg/mL (≈ 45.4 mM)
[3]; EtOAc/heptane 50:50 (% v/v), 20° C.
  solubility: 20 mg/mL (≈ 53.4 mM)
[3]; EtOAc/heptane 50:50 (% v/v), 45° C.
  solubility: 34 mg/mL (≈ 90.7 mM)
[3]; EtOAc/heptane 60:40 (% v/v), 20° C.
  solubility: 33 mg/mL (≈ 88 mM)
[3]; EtOAc/heptane 60:40 (% v/v), 45° C.
  solubility: 61 mg/mL (≈ 163 mM)
[3]; EtOAc/heptane 70:30 (% v/v), 20° C.
  solubility: 49 mg/mL (≈ 131 mM)
[3]; EtOAc/heptane 70:30 (% v/v), 45° C.
  solubility: 85 mg/mL (≈ 227 mM)
[3]; EtOAc/heptane 80:20 (% v/v), 20° C.
  solubility: 69 mg/mL (≈ 184 mM)
[3]; EtOAc/heptane 80:20 (% v/v), 45° C.
  solubility: 124 mg/mL (≈ 331 mM)
[3]; EtOAc/heptane 90:10 (% v/v), 20° C.
  solubility: 95 mg/mL (≈ 253 mM)
[3]; EtOAc/heptane 90:10 (% v/v), 45° C.
  solubility: 177 mg/mL (≈ 472 mM)
[3]; EtOAc/heptane 100:0 (% v/v), 20° C.
  solubility: 115 mg/mL (≈ 307 mM)
[3]; EtOAc/heptane 100:0 (% v/v), 45° C.
  solubility: 187 mg/mL (≈ 499 mM)
CYP2B6
  metabolism by CYP2B6: No evidence
CYP2C9
  metabolism by CYP2C9: No evidence
[4]; aqueous with cosolvent or surfactant or cyclodextrin, 2-propanol/water 50:50, 20° C.
  solubility: ~5 mg/mL (≈ 13.3 mM)
[4]; aqueous with cosolvent or surfactant or cyclodextrin, acetone/water 50:50, 20° C.
  solubility: ~5 mg/mL (≈ 13.3 mM)
[4]; organic solvent or mixture, 2-butanol, 20° C.
  solubility: 50 to 100 mg/mL (≈ 133 to 267 mM)
[4]; organic solvent or mixture, 2-methyltetrahydrofuran (MeTHF), 20° C.
  solubility: > 100 mg/mL
[4]; organic solvent or mixture, 2-propanol/water 80:20, 20° C.
  solubility: 50 to 100 mg/mL (≈ 133 to 267 mM)
[4]; organic solvent or mixture, 2-propanol/water 90:10, 20° C.
  solubility: 30 to 50 mg/mL (≈ 80 to 133 mM)
[4]; organic solvent or mixture, acetone, 20° C.
  solubility: > 100 mg/mL
[4]; organic solvent or mixture, acetone/water 90:10, 20° C.
  solubility: > 100 mg/mL
[4]; organic solvent or mixture, acetonitrile, 20° C.
  solubility: 50 to 100 mg/mL (≈ 133 to 267 mM)
[4]; organic solvent or mixture, benzonitrile, 20° C.
  solubility: > 100 mg/mL
[4]; organic solvent or mixture, dichloromethane, 20° C.
  solubility: > 100 mg/mL
[4]; organic solvent or mixture, ethanol, 20° C.
  solubility: > 100 mg/mL
[4]; organic solvent or mixture, ethyl acetate, 20° C.
  solubility: > 100 mg/mL
[4]; organic solvent or mixture, heptane, 20° C.
  solubility: < 2 mg/mL
[4]; organic solvent or mixture, i-propyl acetate, 20° C.
  solubility: 50 to 100 mg/mL (≈ 133 to 267 mM)
[4]; organic solvent or mixture, isopropyl alcohol (IPA), 20° C.
  solubility: 25 to 30 mg/mL (≈ 66.7 to 80 mM)
[4]; organic solvent or mixture, methyl ethyl ketone (MEK), 20° C.
  solubility: > 100 mg/mL
[4]; organic solvent or mixture, methyl isobutyl ketone (MIK), 20° C.
  solubility: > 100 mg/mL
[4]; organic solvent or mixture, methyl tert-butyl ether (MTBE), 20° C.
  solubility: 17 to 25 mg/mL (≈ 45.4 to 66.7 mM)
[4]; organic solvent or mixture, t-Butyl acetate, 20° C.
  solubility: 25 to 30 mg/mL (≈ 66.7 to 80 mM)
[4]; organic solvent or mixture, tetrahydrofuran (THF), 20° C.
  solubility: > 100 mg/mL
[4]; organic solvent or mixture, toluene, 20° C.
  solubility: 25 to 30 mg/mL (≈ 66.7 to 80 mM)
[4]; water, 20° C.
  solubility: < 2 mg/mL
APP/PS1 mice [5]; 3.75 mg/kg q12 oral, at least 28 days
  SV2A and PSD-95 staining in hippocampal and cortical sections, relative to vehicle: significant increases
APP/PS1 mice [5]; one month washout period
  rescue of synaptic density after washout: persists after drug washout; also recorded: preserved
